B1: interleukin-10 (protein, UniProt P18893 19-178, looked up)
Interleukin-10: SRGQYSREDNNCTHFPVGQSHMLLELRTAFSQVKTFFQTKDQLDNILLTDSLMQDFKGYLGCQALSEMIQFYLVEVMPQAEKHGPEIKEHLNSLGEKLKTLRMRLRRCHRFLPCENKSKAVEQVKSDFNKLQDQGVYKAMNEFDIFINCIEAYMMIKMKS

How the values were obtained:
[1] = tested on: rats with surgical manipulation of the intestine; experiment: Rat in vivo gastrointestinal transit of fluorescein-labeled dextran (geometric center); conditions: surgically manipulated rats, 24 h postoperatively, i.v. pretreatment 1 h before surgery; glycine 170 mg/kg, valine 263.5 mg/kg; SM vehicle GC=5.2±0.7
Method: (§1) Age matched animals treated with vehicle (normal saline) or valine (263.5 mg/kg, osmotic control) at appropriate time points and at equal volumes served as controls.
(§2) The rodent intestine was subjected to a standardized degree of surgical manipulation as described previously (14). Rats were anesthetized by isoflurane inhalation and the abdomen was opened by a midline laparotomy. The cecum was eventrated and laid out onto a moist gauze. Then, the intestine was inspected along its length and gently compressed using moist cotton applicators. The midline incision was closed by two layers of continuous sutures. All operative procedures were performed under sterile conditions with the intestine being handled only by instruments and never touched directly. Animals were killed at specific time points postoperatively by isoflurane anesthesia inhalation overdose and heart incision.
(§3) Methods: ACI-rats (180-220 g) underwent standardized surgical manipulation of the intestine. […] Age matched animals treated with vehicle or valine (osmotic control) at appropriate time points and at equal volumes served as controls. […] Postoperative mediator mRNA expression in the intestinal muscularis was determined by real-time RT PCR. Leukocyte extravasation was investigated in muscularis whole-mounts. Nitrite production was measured in muscularis cultures. In vivo transit of FITC-dextran was measured using geometric center analysis (GC). In vitro circular muscle contractility was assessed in a standard organ bath. Statistical analysis: unpaired Student t test, p<0.05, mean±SEM.

IL-6 mRNA = experiment: Real-time RT-PCR of muscularis IL-6 mRNA 3 hours postoperatively; assay type: in vivo, rat; conditions: surgically manipulated rats, 3 hours postoperatively
Method: as §1, §2
mRNA Expression Analysis: Postoperative mediator mRNA expressions in the small intestinal muscularis were analyzed using SYBR Green two-step real-time RT-PCR as previously described, (N=4-6). […] Total mRNA extraction was performed using the guanidium-thiocyanate phenol-chloroform extraction method. Equal aliquots (200 ng) of total RNA from each sample, quantified by spectrophotometer, were processed for complimentary DNA (cDNA) synthesis. Primer sequences were used as described previously (tumor necrosis factor-a, TNF-a) (35), or designed according to published sequences 36-41, (GenBank accession numbers: NM_017008 [glyceraldehyde phosphate dehydrogenase (GAPDH)], AF233596 [cyclo-oxygenase-2 (COX-2)], NM_012967 [intercellular adhesion molecule-1 (ICAM-1)], M26744 [interleukin-6 (IL-6)] and NM_012611 [inducible nitric oxide synthase (iNOS)]), using Primer Express software (PE Applied Biosystems, Foster City, Calif.) and purchased from Life Technologies (Rockville, Md.). GAPDH was used as an endogenous control. The efficiency and equality of the real-time PCR primer pairs were determined by amplifying serial dilutions of muscularis cDNA. For each target gene different MgCl2 (3 to 5 mM) concentrations were tested to optimize the PCR amplification. […] Relative quantification was performed using the comparative CT method as described by Schmittgen et al. (42).
Methods: ACI-rats (180-220 g) underwent standardized surgical manipulation of the intestine. […] Postoperative mediator mRNA expression in the intestinal muscularis was determined by real-time RT PCR. […] Nitrite production was measured in muscularis cultures. In vivo transit of FITC-dextran was measured using geometric center analysis (GC). In vitro circular muscle contractility was assessed in a standard organ bath. […]

[2] = tested on: MPO positive leukocytes in the intestinal muscularis; experiment: Myeloperoxidase (MPO) histochemistry: leukocyte infiltration in muscularis whole-mounts; assay type: in vivo, rat; conditions: manipulated rats, 24 h postoperatively; glycine 170 mg/kg or valine (263.5 mg/kg); SM vehicle 95±6.4
Method: as §1, §2
Histochemistry and Immunohistochemistry: Leukocyte infiltration was quantified on rat whole-mounts of the intestinal muscularis as described previously (N=6-8) (43). Myeloperoxidase (MPO) positive cells were detected using a mixture of 30 mg Hanker-Yates reagent, 30 ml KRB and […] 3% hydrogen peroxide for 10 minutes. Leukocytes were counted in 5 randomly chosen areas in each specimen (3 specimen per animal) at a magnification of 200×.
as §3

[3] = tested on: jejunal circular smooth muscle; experiment: In vitro bethanechol stimulated contractile activity of jejunal circular muscle strips; assay type: in vivo, rat; conditions: manipulated rats, 170 mg/kg glycine or valine pretreatment, 100 mM bethanechol; control 3.2±0.2, SM vehicle 1.9±0.1
Method: as §1, §2
Mechanical in vitro activity of the rat mid-jejunum was evaluated at 24 hours postoperatively using smooth muscle strips of the circular muscularis as described previously (rats: N=5-11) (14). After dissection and a 30 minute equilibration period, the individual muscles were incrementally stretched to L0. Then after recording spontaneous contractility for 30 minutes, dose response curves were generated using increasing concentrations of the muscarinic agonist bethanechol ([…]) for 10 minutes and intervening wash periods (KRB) of 10 minutes. The contractile response was recorded and analyzed as g/mm2/sec over a 10 minute period.
as §3

nitrite (nitric oxide) = experiment: Nitrite release (Griess reaction) from organ cultured muscularis; assay type: in vivo, rat; conditions: manipulated rats, glycine 170 mg/kg or valine
Method: as §1, §2
Tissue culture and determination of nitrite and prostanoid release in supernatant: The rat small intestine and colon were processed for tissue culture at 24 hours as described previously, (N=5-8) (25). Briefly, the muscularis was isolated by stripping the muscularis from the mucosa and then cut into small pieces and washed twice in Hank's balanced salt solution (HBSS) with 100 U/ml penicillin G and 100 μg/ml streptomycin. Aliquots of muscularis ([…]) were incubated (37° C., 5% CO2) in 6-well tissue culture plates containing 3 ml of supplemented Dulbecco's modified Eagle medium (DMEM)-F12 with 100 U/ml penicillin G and 100 μg/ml streptomycin. After an incubation period of 24 hours, 500 μl aliquots of supernatant were collected, frozen in liquid nitrogen and stored at −80° C. The muscle tissue was blotted dry, and the weight was estimated. To estimate the generation of NO from the intestinal muscularis, nitrite production was measured by the Griess reaction (44). Supernatant from the tissue culture was mixed with equal amount of Griess reagent (0.1% N-(1-naphtyl)ethyl-enediamine dihydrochloride and 1% sulfanilamide in 6% phosphoric acid; 1:1) and incubated at room temperature for 10 minutes. The absorbance at 550 nm was measured with a microplate reader and compared with standard prepared from serial dilutions of sodium nitrite. Each standard and supernatant sample was analyzed in duplicate, and the mean value of nitrite production was normalized to the tissue weight.
as §3

prostanoids [4] = experiment: Prostanoid release (ELISA) from organ cultured muscularis; assay type: in vivo, rat; conditions: manipulated rats, glycine 170 mg/kg or valine
Method: Age matched animals treated with vehicle (normal saline) or valine (263.5 mg/kg, osmotic control) at appropriate time points and at equal volumes served as controls. The rodent intestine was subjected to a standardized degree of surgical manipulation as described previously (14). Rats were anesthetized by isoflurane inhalation and the abdomen was opened by a midline laparotomy. The cecum was eventrated and laid out onto a moist gauze. Then, the intestine was inspected along its length and gently compressed using moist cotton applicators. The midline incision was closed by two layers of continuous sutures. All operative procedures were performed under sterile conditions with the intestine being handled only by instruments and never touched directly. Animals were killed at specific time points postoperatively by isoflurane anesthesia inhalation overdose and heart incision. The synthesis of prostanoids released into the tissue culture supernatant over a period of 24 hours was assayed by ELISA. After incubation the culture median and tissue was inspected, 500 μL aliquots of supernatant were frozen in liquid nitrogen and stored at −80° C. The muscle tissue was blotted dry and weighed. Culture supernatants were assayed for the measurement of prostaglandin secretion by enzyme immunoassay (Cayman Chemicals, Ann Arbor, Mich.). The ELISA was carried out in a 1:10 and 1:30 dilution. The assay was corrected for wet tissue weights and the prostaglandin ELISA kit sensitivity was 20 pg/ml.

prostanoids [5] = experiment: ELISA prostanoid release from muscularis, IL-10 treatment; assay type: in vivo, mice; conditions: SM + IL-10; control=4033.4, SM=13111
Method: (§4) Methods: Mice were subjected to surgical intestinal manipulation (SM) to induce ileus. Before and after animals were treated with IL-10 (12.5 μg/kg, s.c.). Gastrointestinal transit and organ bath measured motility. Histochemistry on jejunal muscularis whole-mounts quantified neutrophil recruitment. Muscularis mediator expressions were measured by RT-PCR, Griess reaction, ELISA and Luminex (N=4 each).

[6] = tested on: IL-6, IL-1β and MCP 1 mRNAs; experiment: RT-PCR of muscularis mediator mRNAs, IL-10 treatment; assay type: in vivo, mice; conditions: treated animals vs SM
Method: as §4

[7] = tested on: GM-CSF, VEGF, IL-1α, IL-6, MCP-1 and MIP-1α; experiment: Luminex mediator release from muscularis, IL-10 treatment; assay type: in vivo, mice; conditions: SM + IL-10 vs SM
Method: as §4

[8] = tested on: muscularis neutrophil recruitment; experiment: Histochemistry on jejunal muscularis whole-mounts: neutrophil recruitment, IL-10 treatment; assay type: in vivo, mice; conditions: IL-10 treatment compared to SM with vehicle
Method: as §4

[9] = tested on: mice subjected to surgical intestinal manipulation (SM); experiment: Gastrointestinal transit (geometric center) after surgical intestinal manipulation, IL-10 treatment; assay type: in vivo; conditions: SM + IL-10 12.5 μg/kg s.c. before and after; control=10.6±0.3, SM=4.6±0.6
Method: as §4

NO = experiment: Griess reaction NO release from muscularis, IL-10 treatment; assay type: in vivo, mice; conditions: SM + IL-10; control=47.1, SM=607.7
Method: as §4

jejunal circular muscle = experiment: Organ bath: jejunal circular muscle contractions to bethanechol, IL-10 treatment; assay type: in vivo, mice; conditions: SM + IL-10 12.5 μg/kg s.c.; 100 μM bethanechol; SM alone 59.2±4.8%
Method: as §4

| Molecule | geometric center (GC) of gastrointestinal transit [1] | postoperative induction of IL-6 mRNA (IL-6 mRNA) | infiltrating MPO positive leukocytes [2] [cells/field at 200×] | mean contractile force, bethanechol stimulated [3] [g/mm2/s] | nitrite release, fold increase over control, colon (nitrite (nitric oxide); colonic muscularis 24 h organ culture, SM vehicle 10.9-fold) [fold] | nitrite release, fold increase over control, jejunum (nitrite (nitric oxide); jejunal muscularis 24 h organ culture, SM vehicle 11.4-fold) [fold] | prostanoid release, fold of control, colon (prostanoids [4]; colonic muscularis 24 h organ culture, SM 3.1-fold) [fold] | prostanoid release, fold of control, jejunum (prostanoids [4]; jejunal muscularis 24 h organ culture, SM 5.9-fold) [fold] | prostanoids (PG) release (prostanoids [5]) [pg/mL/mg] | induction of IL-6, IL-1β and MCP 1 mRNAs after SM [6] | mediator release (GM-CSF, VEGF, IL-1α, IL-6, MCP-1 and MIP-1α) [7] | muscularis neutrophil recruitment [8] | geometric center (GC) of gastrointestinal transit [9] | NO release (NO) [µM/g] | jejunal circular muscle contractions to bethanechol, % of control (jejunal circular muscle) [%] |
| --- | --- | --- | --- | --- | --- | --- | --- | --- | --- | --- | --- | --- | --- | --- | --- |
| CC(C)[C@H](N)C(=O)O [valine, reference compound] | 6.2±0.5 | no effect | 93±2.7 | 2.1±0.2 | 9.5 | 12.0 | 1.5 | 3.4 | – | – | – | – | – | – | – |
| B1 | – | – | – | – | – | – | – | – | 3946.7 | less induction | significantly diminished | significantly less | 10.8±0.4 | 49.1 | 93.6±21.1 |
